Among the data in ChEMBL document CHEMBL1139075, “Synthesis and antitubercular activity of quaternized promazine and promethazine derivatives” (Bioorg Med Chem Lett, 2007) are MIC and IC50 values, retold here.

For assay [1], the system named is Mycobacterium tuberculosis. The assay can be described thus: Antitubercular activity against actively growing Mycobacterium tuberculosis H37Rv by microplate alamar blue assay. Type of assay: functional. Background: Alamar Blue is a resazurin reagent that responds to reducing activity.
The test system of assay [2] is Mycobacterium tuberculosis. As to the kind of experiment: Antitubercular activity against non-replicating Mycobacterium tuberculosis H37Rv by LORA. The class given is functional.
In assay [3] the test system is Vero. As to the kind of experiment: Cytotoxicity against Vero cells after 3 days. The class given is cell-based. The following applies: Chlorocebus sabaeus, 72 h.

For the compound `Cc1ccc(C[N+](C)(C)C(C)CN2c3ccccc3Sc3ccccc32)cc1` (stereo unspecified), the results for the minimal inhibitory concentration (MIC) in assay [1] and in assay [2] were 12.1 µM and 34.7 µM, respectively.
For `CC(CN1c2ccccc2Sc2ccccc21)[N+](C)(C)Cc1ccccc1` (stereo unspecified) the same measures were 31.6 µM and 99.7 µM.
`C[N+](C)(CCCN1c2ccccc2Sc2ccc(C(F)(F)F)cc21)Cc1ccc(F)cc1` yielded an IC50 in assay [3] of over 128 µM. Further, the minimal inhibitory concentration (MIC) in assay [1] amounted to 6.4 µM; in assay [2], 10 µM.
As for `CC(CN1c2ccccc2Sc2ccccc21)[N+](C)(C)Cc1ccc([N+](=O)[O-])cc1` (stereo unspecified), the minimum inhibitory concentration (MIC) in assay [1] was 20.7 µM; in assay [2], over 128 µM.
The compound `Cc1ccc(C[N+](C)(C)CCCN2c3ccccc3Sc3ccc(C(F)(F)F)cc32)cc1` showed an IC50 in assay [3] of over 128 µM. For the same compound, the values for the MIC in assay [1] and in assay [2] were 6.8 µM and 6.9 µM, respectively.
`C[N+](C)(CCCN1c2ccccc2Sc2ccccc21)Cc1cccc(Cl)c1` had a half-inhibitory concentration (IC50) in assay [3] of over 128 µM. The minimal inhibitory concentration (MIC) is 7.5 µM in assay [1] and 13 µM in assay [2].
Turning to `C[N+](C)(CCCN1c2ccccc2Sc2ccccc21)Cc1ccc(Cl)cc1`, the 50% inhibitory concentration (IC50) in assay [3] is over 64 µM. Also, the minimal inhibitory concentration (MIC) in assay [1] came out at 9.31 µM; in assay [2] it was 15.4 µM.
Turning to `COc1ccc(C[N+](C)(C)C(C)CN2c3ccccc3Sc3ccccc32)cc1` (stereo unspecified), the values for the minimum inhibitory concentration (MIC) in assay [1] and in assay [2] were 14.4 µM and 105 µM, respectively.
Compound `COc1ccc(C[N+](C)(C)CCCN2c3ccccc3Sc3ccc(Cl)cc32)cc1` came in with an IC50 in assay [3] of over 128 µM. For the same compound, the MIC in assay [1] turned out to be 8.5 µM; in assay [2], 11.9 µM.
As for `C=CC[N+](C)(C)CCCN1c2ccccc2Sc2ccc(Cl)cc21`, the MIC in assay [1] came to 30.6 µM; in assay [2] it was 106 µM.
On to `Cc1ccc(C[N+](C)(C)CCCN2c3ccccc3Sc3ccc(Cl)cc32)cc1`, for which the IC50 in assay [3] is over 128 µM. The values for the MIC in assay [1] and in assay [2] were 4.7 µM and 7.5 µM, respectively.
As for `C[N+](C)(CCCN1c2ccccc2Sc2ccccc21)Cc1ccccc1Cl`, the MIC in assay [1] was 14.3 µM; in assay [2], 24.6 µM.
Regarding `C[N+](C)(CCCN1c2ccccc2Sc2ccc(Cl)cc21)Cc1ccc(F)cc1`, the IC50 in assay [3] was over 128 µM. The minimal inhibitory concentration (MIC) in assay [1] is 7.6 µM; in assay [2], 13.7 µM.
Turning to `C[N+](C)(CCCN1c2ccccc2Sc2ccc(Cl)cc21)Cc1cccc(Cl)c1`, the half-maximal inhibitory concentration (IC50) in assay [3] is over 128 µM. Further, the values for the MIC in assay [1] and in assay [2] were 4.5 µM and 6.7 µM, respectively.
In assay [3], `C[N+](C)(CCCN1c2ccccc2Sc2ccc(C(F)(F)F)cc21)Cc1ccccc1Cl` came in with a half-inhibitory concentration (IC50) of over 128 µM. The MIC in assay [1] turned out to be 7.3 µM; in assay [2] it was 7.5 µM.
For `C[N+](C)(CCCN1c2ccccc2Sc2ccc(Cl)cc21)Cc1ccc(Cl)cc1` the same measures were over 128 µM, 6.06 µM and 6.7 µM.
On to `C[N+](C)(CCCN1c2ccccc2Sc2ccccc21)Cc1ccc(F)cc1`, for which the values for the MIC in assay [1] and in assay [2] were 14.6 µM and 32.9 µM, respectively.
For `C[N+](C)(CCCN1c2ccccc2Sc2ccc(Cl)cc21)Cc1ccc([N+](=O)[O-])cc1`, the MIC in assay [1] is 12.3 µM; in assay [2], 27.5 µM.
`C[N+](C)(CCCN1c2ccccc2Sc2ccc(Cl)cc21)Cc1ccccc1Cl` displayed an IC50 in assay [3] of over 128 µM. The MIC in assay [1] was 5.6 µM; in assay [2], 7.6 µM.
`Cc1ccc(C[N+](C)(C)CCCN2c3ccccc3Sc3ccccc32)cc1` gave an IC50 in assay [3] of over 128 µM. Besides, the values for the minimal inhibitory concentration (MIC) in assay [1] and in assay [2] were 9.9 µM and 15 µM, respectively.
On the same counts, the results for `C[N+](C)(CCCN1c2ccccc2Sc2ccc(C(F)(F)F)cc21)Cc1cccc(Cl)c1` are over 128 µM, 3.8 µM and 5.8 µM.
For `C[N+](C)(CCCN1c2ccccc2Sc2ccc(Cl)cc21)Cc1ccccc1` the same measures were over 128 µM, 7.33 µM and 11.1 µM.
In assay [3], `C[N+](C)(CCCN1c2ccccc2Sc2ccc(C(F)(F)F)cc21)Cc1ccc(Cl)cc1` gave a concentration for half-maximal inhibition (IC50) of over 128 µM. The MIC in assay [1] amounted to 3.81 µM; in assay [2] it was 6.1 µM.

As usually defined, the MIC is the least concentration at which growth counts as inhibited. Higher therefore signals weaker potency. As a reminder, the IC50 is the concentration at which inhibition is half-maximal.
